Values quoted from earlier work, collected in patent US7625587B2, “Hepato phyto-nutraceutical synergistic composition” (priority 2006, dated 2009).

What was measured:
[1] = tested on: bacterial resistance mechanism (multidrug pump); details: in the presence of 5′-MHC
[2] = tested on: carbon tetrachloride hepatotoxicity; details: mouse, in vivo
mice hepatocytes [3] = tested on: mice hepatocytes
[4] = tested on: hepatic toxicity induced by paracetamol, prednisolone and bromobenzene; details: mice; pre-treatment during ten days
hepatic mitochondria = details: free oxygen radical induced damage
mice hepatocytes [5] = tested on: mice hepatocytes; remark: listed apart in the source
beta-reductase = details: in vitro
[6] = tested on: 11_beta-hydroxysteroid dehydrogenase; details: in vitro

COc1cc([C@H]2Oc3cc(-c4cc(=O)c5c(O)cc(O)cc5o4)cc(OC)c3O[C@@H]2CO)ccc1O (racemic) [5′-methoxyhydnocarpin]
accumulation of berberine in the cells [1]: strong increase of accumulation of berberine

CC1(C)[C@@H](O[C@H]2O[C@H](C(=O)O)[C@@H](O)[C@H](O)[C@H]2O[C@@H]2O[C@H](C(=O)O)[C@@H](O)[C@H](O)[C@H]2O)CC[C@]2(C)[C@H]3C(=O)C=C4[C@@H]5C[C@@](C)(C(=O)O)CC[C@]5(C)CC[C@@]4(C)[C@]3(C)CC[C@@H]12 [Glycyrrhizin]
hepatic injuries induced by carbon tetrachloride [2]: prevented hepatic injuries | liberation of histamine (mice hepatocytes [3]): inhibited the liberation of histamine

COc1cc(/C=C/C(=O)[O-])ccc1O.[Na+] [sodium ferulate]
drug induced hepatic toxicity [4]: improved the hepatic toxicity

COc1cc(/C=C/C(=O)O)ccc1O [Ferulic acid, ferulic acid]
protection of hepatic mitochondria (hepatic mitochondria): protected the hepatic mitochondria

CC1(C)[C@@H](O[C@H]2O[C@H](C(=O)O)[C@@H](O)[C@H](O)[C@H]2O[C@@H]2O[C@H](C(=O)O)[C@@H](O)[C@H](O)[C@H]2O)CC[C@]2(C)[C@H]3C(=O)C=C4[C@@H]5C[C@@](C)(C(=O)O)CC[C@]5(C)CC[C@@]4(C)[C@]3(C)CC[C@@H]12 [glicirricinic acid]
toxic action of carbon tetrachloride and of galactosamine (mice hepatocytes [5]): reduces the toxic action

CC1(C)[C@@H](O)CC[C@]2(C)[C@H]3C(=O)C=C4[C@@H]5C[C@@](C)(C(=O)O)CC[C@]5(C)CC[C@@]4(C)[C@]3(C)CC[C@@H]12 [glycyrrhetic acid]
inhibition of beta-reductase (beta-reductase): inhibits | inhibition of 11_beta-hydroxysteroid dehydrogenase [6]: inhibits
